From US20030166007A1, “Chemical proteomics” (MDS Proteomics Inc., priority 2002, published 2003)

Assays:
[1] = biological target: Amido phosphoribosyltransferase (Homo sapiens, UniProt Q06203); assay: MTX-agarose affinity chromatography of cell lysate, MS identification; format: binding; design: endogenous in cells; host or cells: HEK 293 (also Jurkat, K562, A431); conditions: lysates from HEK293, Jurkat, K562 and A431
Procedure: (§1) After incubation for 30 minutes at 4° C. with shaking, the lysates were clarified by centrifugation (27,000×g). In some experiments, cells were lysed using 20 strokes of a Dounce® homogenizer in the absence of detergents. […] While optimizing the protocol, however, several experimental variations were tested on cell lysates including concentration by ammonium sulfate precipitation, or removal of nucleic acid with Streptomycin sulfate. In such cases, the protein sample was desalted using a PD 10 protein-desalting column (Pharmacia), which had been pre-equilibrated in the same buffer (10 mM potassium phosphate pH 7.5)
(§2) Affinity Chromatography: The desalted lysate was loaded onto a column of pre-equilibrated MTX-agarose (Sigma, 50 μL bed volume) or sepharose 4B agarose as a negative control. The lysates were allowed to slowly flow through the matrix under gravity flow. […] Retentates from the microcons were then loaded onto SDS-PAGE 4%-15% gradient mini gels (Bio-Rad). […]
(§3) The peptides were then separated by reverse phase chromatography on C18 resin and directly injected into a mass spectrometer using an automated sample-loading device from 96 well plates. […] The spectra generated were analyzed on a custom-built multi-node server platform (RADARS, ProteoMetrics), which uses two database searching programs, Sonar (ProteoMetrics) and Mascot (Matrix Sciences). […]

[2] = test system: Glycinamideribonucleotide synthase (GARS); assay: as above; format: binding, human; conditions: HEK 293 lysate; 110 kDa trifunctional protein and separate 50 kDa band
Procedure: as §1, §2, §3

[3] = biological target: T1, Propionyl CoA carboxylase (Homo sapiens, UniProt P05165+P05166); assay: as above; format: binding; conditions: HEK 293 lysate
T1 construct: endogenous in cells; host or cells: HEK 293
T1 sequence (P05165 53-728): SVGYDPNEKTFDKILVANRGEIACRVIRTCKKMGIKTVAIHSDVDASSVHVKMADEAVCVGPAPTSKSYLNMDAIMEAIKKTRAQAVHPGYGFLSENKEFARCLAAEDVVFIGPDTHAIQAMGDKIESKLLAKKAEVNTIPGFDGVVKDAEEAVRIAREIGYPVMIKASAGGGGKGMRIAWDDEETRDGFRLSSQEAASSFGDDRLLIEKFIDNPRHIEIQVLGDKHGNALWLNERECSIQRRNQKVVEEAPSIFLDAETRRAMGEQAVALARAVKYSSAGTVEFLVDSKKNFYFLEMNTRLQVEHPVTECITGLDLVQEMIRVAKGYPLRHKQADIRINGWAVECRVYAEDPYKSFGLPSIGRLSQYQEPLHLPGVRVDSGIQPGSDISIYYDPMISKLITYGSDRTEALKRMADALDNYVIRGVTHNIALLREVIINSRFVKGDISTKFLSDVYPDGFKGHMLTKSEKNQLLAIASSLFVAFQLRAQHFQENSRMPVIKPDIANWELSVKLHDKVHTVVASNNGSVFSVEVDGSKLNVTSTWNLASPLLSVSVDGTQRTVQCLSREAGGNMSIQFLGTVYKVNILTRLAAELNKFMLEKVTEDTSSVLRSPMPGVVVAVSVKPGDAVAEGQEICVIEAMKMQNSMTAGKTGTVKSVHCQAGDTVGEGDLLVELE
T1 sequence (P05166 29-539): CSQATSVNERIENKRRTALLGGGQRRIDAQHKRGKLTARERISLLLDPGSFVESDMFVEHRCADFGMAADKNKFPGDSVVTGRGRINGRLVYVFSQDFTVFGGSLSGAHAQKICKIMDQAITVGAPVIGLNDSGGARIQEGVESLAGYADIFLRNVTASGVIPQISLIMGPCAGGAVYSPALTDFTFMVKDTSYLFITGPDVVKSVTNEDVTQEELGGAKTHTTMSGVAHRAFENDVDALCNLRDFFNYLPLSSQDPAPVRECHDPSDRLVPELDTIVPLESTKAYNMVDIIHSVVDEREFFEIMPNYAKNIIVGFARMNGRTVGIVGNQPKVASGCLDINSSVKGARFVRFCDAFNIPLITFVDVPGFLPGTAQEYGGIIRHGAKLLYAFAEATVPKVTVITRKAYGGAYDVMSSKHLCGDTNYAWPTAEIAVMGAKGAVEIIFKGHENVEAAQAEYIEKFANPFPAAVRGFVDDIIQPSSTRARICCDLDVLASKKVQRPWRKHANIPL
Procedure: as §1, §2, §3

[4] = biological target: T2, Glutathione synthase (Homo sapiens, UniProt P48637); assay: as above; format: binding; conditions: HEK 293 lysate
T2 construct: endogenous in cells; host or cells: HEK 293
T2 sequence (P48637 1-474): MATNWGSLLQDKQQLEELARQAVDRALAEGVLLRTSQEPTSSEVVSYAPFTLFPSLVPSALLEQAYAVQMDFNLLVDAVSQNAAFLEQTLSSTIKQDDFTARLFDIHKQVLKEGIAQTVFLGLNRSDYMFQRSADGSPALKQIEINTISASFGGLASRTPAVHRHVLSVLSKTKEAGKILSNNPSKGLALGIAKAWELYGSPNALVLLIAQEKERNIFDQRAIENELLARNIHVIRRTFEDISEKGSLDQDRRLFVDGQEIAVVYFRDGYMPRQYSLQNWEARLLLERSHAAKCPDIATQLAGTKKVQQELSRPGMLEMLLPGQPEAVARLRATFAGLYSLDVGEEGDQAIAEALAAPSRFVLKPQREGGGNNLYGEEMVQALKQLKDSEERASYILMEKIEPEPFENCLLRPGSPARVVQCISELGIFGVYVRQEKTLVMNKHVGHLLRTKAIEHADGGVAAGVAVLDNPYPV
Procedure: as §1, §2, §3

[5] = biological target: T3, AIR carboxylase (Homo sapiens, UniProt P22234); assay: as above; format: binding; conditions: HEK 293 lysate
T3 construct: endogenous in cells; host or cells: HEK 293
T3 sequence (P22234 1-425): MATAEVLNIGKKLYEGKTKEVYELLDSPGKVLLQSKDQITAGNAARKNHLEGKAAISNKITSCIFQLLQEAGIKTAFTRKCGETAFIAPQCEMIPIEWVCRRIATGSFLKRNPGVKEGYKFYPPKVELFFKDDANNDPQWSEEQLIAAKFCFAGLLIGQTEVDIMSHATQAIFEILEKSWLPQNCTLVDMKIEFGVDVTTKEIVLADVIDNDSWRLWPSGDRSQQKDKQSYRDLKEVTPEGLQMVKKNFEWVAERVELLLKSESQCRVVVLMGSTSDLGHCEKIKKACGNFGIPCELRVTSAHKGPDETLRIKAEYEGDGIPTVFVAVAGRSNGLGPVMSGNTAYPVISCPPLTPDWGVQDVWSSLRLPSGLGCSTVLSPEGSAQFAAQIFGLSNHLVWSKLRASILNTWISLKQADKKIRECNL
Procedure: as §1, §2, §3

[6] = biological target: T4, SAICAR synthetase (Homo sapiens, UniProt P22234); assay: as above; format: binding; conditions: HEK 293 lysate; bifunctional enzyme with AIR carboxylase
T4 construct: endogenous in cells; host or cells: HEK 293
T4 sequence (P22234 1-425): T3 sequence (P22234 1-425)
Procedure: as §1, §2, §3

[7] = biological target: T5, HPRT (Homo sapiens, UniProt P00492); conditions: cited from earlier work
T5 sequence (P00492 1-218): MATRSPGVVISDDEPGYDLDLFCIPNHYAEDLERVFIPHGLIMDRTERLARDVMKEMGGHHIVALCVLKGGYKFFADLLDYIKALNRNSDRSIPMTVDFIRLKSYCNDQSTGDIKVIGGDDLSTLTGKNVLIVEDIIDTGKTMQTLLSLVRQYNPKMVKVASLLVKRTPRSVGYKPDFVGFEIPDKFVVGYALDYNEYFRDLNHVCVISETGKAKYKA

Chain of Amido phosphoribosyltransferase (Q06203 12-517): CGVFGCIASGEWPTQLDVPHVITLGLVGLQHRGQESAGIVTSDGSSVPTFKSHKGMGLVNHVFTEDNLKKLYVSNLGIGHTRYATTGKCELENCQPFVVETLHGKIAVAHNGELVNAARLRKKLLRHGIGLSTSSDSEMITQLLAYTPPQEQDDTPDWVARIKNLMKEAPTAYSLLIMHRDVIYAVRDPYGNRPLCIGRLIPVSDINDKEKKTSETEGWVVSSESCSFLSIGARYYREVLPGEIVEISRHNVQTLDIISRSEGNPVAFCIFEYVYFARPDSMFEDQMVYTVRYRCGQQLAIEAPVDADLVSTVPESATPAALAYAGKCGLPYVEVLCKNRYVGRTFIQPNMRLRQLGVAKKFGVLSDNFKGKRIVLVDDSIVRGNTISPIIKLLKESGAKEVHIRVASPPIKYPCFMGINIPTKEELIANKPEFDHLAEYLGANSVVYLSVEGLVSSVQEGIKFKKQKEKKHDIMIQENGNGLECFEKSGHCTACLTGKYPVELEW

## CN(Cc1cnc2nc(N)nc(N)c2n1)c1ccc(C(=O)N[C@@H](CCC(=O)O)C(=O)O)cc1 [Methotrexate]
[1]
  Protein identified by Mass Spec.; New MTX interactor: found to interact with Methotrexate
[1]; listed as MTX
  Protein identified by Mass Spec.; New MTX interactor: ✓
[2]
  Association with the Methotrexate matrix: GARS-derived peptides were isolated
[3]
  Association with the Methotrexate matrix: pulled down consistently
[4]
  Association with the Methotrexate matrix: consistently found
[5]
  Association with the Methotrexate matrix: associated indirectly with Methotrexate
[6]
  Association with the Methotrexate matrix: a single band contained peptides from both domains
[7]
  effect on activity of HPRT: can reduce the activity of HPRT
